# Reference: the OPERA property sets (Mansouri et al. 2018)
# Where a SMILES comes first, the peptide text is derived from it.
row,SMILES,logP
1,CCc1ccc2c(c1)OCCOCCOCCOCCOCCO2,0.98
2,COc1ccc2cc(C(C)C(=O)OCCOC(C)=O)ccc2c1 (centres undefined),3.5
3,CCN(CC)NC(=O)NS(=O)(=O)c1ccc(C)cc1,0.47
4,Nc1nc(N)c2c(N3CCOCC3)cccc2n1,1.11
5,Clc1ccc(-c2noc(N3CCOCC3)n2)cc1,3.1
6,C[N+](C)([O-])CCC(c1ccccc1)c1ccccc1,1.1
7,CC(C)C(N)C(=O)NC(C(=O)O)C(C)C (stereo not drawn) (H-Val-Val-OH; configuration not given here),-2.82
8,COc1cc2ncnc(Nc3cccc(Cl)c3)c2cc1OC,3.51
9,Cc1ccc(Nc2ccncc2S(=O)(=O)NC(=NC#N)NC(C)C)cc1,1.91
10,Cc1ccccc1C=[N+]([O-])C(C)(C)C,1.5
11,O=c1ccc2ccc3occc3c2s1,2.58
12,CC(=NNC(=O)c1ccc([N+](=O)[O-])cc1)c1cnccn1,2.1
13,CC1CCCCC1NC(=O)N1C(=O)N(C)CC1O (centres undefined),2.2
14,C=CCN(N=O)C(=O)N(CCCCC(NC(C)=O)C(=O)NCc1ccccc1)Cc1ccccc1 (centres undefined),2.7
15,CCCC(=NOCC)C1=C(O)CC(c2ccccc2)(c2ccccc2)OC1=O,4.75
16,C=CC(=O)OCC(COC(=O)C=C)(COC(=O)C=C)COC(=O)C=C,2.11
17,CN1COCc2c1ccc1cc3ccc4c(c3nc21)COC(=O)N4,1.7
18,CCCCCCCCCCCCN(C)N=Nc1ccc(C(N)=O)cc1,6.58
19,O=C(O)CCCCCON=C(c1cccc(C(F)(F)F)c1)c1cccnn1,3.22
20,Nc1nnnn1-c1cc(Cl)c(Cl)cc1Cl,2.3
21,CC(=O)OCOC(=O)N(C)N=Nc1ccc(C)cc1,3.28
22,Clc1cc(Br)cc(Cl)c1N=C1NCCN1,2.46
23,COc1ccc(Nc2nc(N)nc(O)n2)cc1OC,1.76

row,SMILES,logP
1,CCNC(=S)SC,1.57
2,O=C(NP(=O)(N1CC1)N1CC1)c1ccc(F)cc1,0.86
3,CC(CO)NC(=O)Cn1ccnc1[N+](=O)[O-] (centres undefined),-1.02
4,COc1cccc(C=[N+]([O-])C(C)(C)C)c1,1.4
5,Cc1ccccc1Cc1c[nH]cn1,2.31
6,C[N+](C)([O-])CCCN1c2ccccc2Sc2ccccc21,1.9
7,Cc1cn(C2C=CC(COP3(=O)OCc4ccccc4O3)O2)c(=O)[nH]c1=O (centres undefined),0.28
8,CCN(CC)CCC(=O)Nc1ccc(N)cc1,0.8
9,Cc1cc2c(nc1N)[nH]c1ccccc12,2.9
10,O=C1C=C(N2CCCCC2)C(=O)N1c1ccc(F)cc1,2.6
11,CNc1ccc(S(=O)(=O)N(C)C)cc1,1.43
12,COC(=O)C(C)NP(=O)(OCC1C=CC(n2cc(C)c(=O)[nH]c2=O)O1)Oc1ccc(F)cc1 (centres undefined),1.1
13,CC(C)CNc1[nH]cnc2ncnc1-2,1.92
14,COC(=O)C(C)NP(=O)(OCC1C=CC(n2cc(C)c(=O)[nH]c2=O)O1)Oc1ccc(C(F)(F)F)cc1 (centres undefined),1.57
15,CC(C)CC(N)C(=O)NC(C(=O)NCC(=O)NC(C(=O)NC(Cc1ccccc1)C(=O)O)C(C)O)C(C)C (centres undefined) (H-LVGTF-OH; configuration not given here),-1.18
16,CCCC(=NOCC)C1=C(O)CC2(CC(C)CC(C)C2)OC1=O (centres undefined),4.47
17,O=c1cc(-c2cccc(Cl)c2)oc2ccc(Cl)cc12,4.38
18,COC1=C(Cl)C(=O)c2ccccc2C1=O,2.15
19,O=[N+]([O-])c1ccc(CCBr)cc1,2.9
20,CCCOc1cccc(CNc2[nH]cnc3ncnc2-3)c1,3.12
21,Cc1[nH]cnc1CSCCNc1ncc(Cc2cccc3c2OCO3)c(=O)n1C,2.51
22,O=c1[nH]c2cc(Cl)ccc2c(O)c1-c1cccc(Oc2ccccc2)c1,5.1
23,Cc1cccc(C)c1-c1cnc[nH]1,2.38

row,SMILES,logP
1,Nc1nnnn1-c1ccc([N+](=O)[O-])cc1,0.77
2,O=c1cc(CCl)oc(Br)c1O,1.08
3,c1ccc2c(c1)OCC(Cc1ncc[nH]1)O2 (centres undefined),1.92
4,Cc1oc2c(C)cc3ccc(=O)oc3c2c1C,3.34
5,CCC(C)C(NC(C)=O)C(=O)NC(Cc1ccccc1)C(=O)NC(CCCNC(=N)N)C(N)=O (stereo not drawn) (Ac-Ile-Phe-Arg-NH2; configuration not given here),-0.05
6,Cc1cc(=O)n(C)c2c1cc(C)c1occ(C)c12,3.3
7,CCC(C)C(N)C(=O)NC(CO)C(=O)NC(CC(C)C)C(=O)O (stereo not drawn) (H-Ile-Ser-Leu-OH; configuration not given here),-2.28
8,COC(=O)c1cccc(C)c1S(=O)(=O)NC(=O)Nc1nc(OCC(F)(F)F)nc(N(C)C)n1,3.56
9,CC(=NNC(=O)c1ccc(N)cc1)c1cnccn1,1.3
10,CC(NCC(O)CON=C(C1CC1)C1CC1)c1ccccc1 (centres undefined),2.32
11,COC(=O)C1=C(C)NC(C)=C(C(=O)OC(C)C)C1c1cccc2c1OCO2 (centres undefined),4.15
12,Cc1cc(C)c2c(c1)COP(=O)(OCC1C=CC(n3cc(C)c(=O)[nH]c3=O)O1)O2 (centres undefined),1.18
13,COc1cc(OC)nc(Oc2cccc(C(F)(F)F)c2C(=O)O)n1,2.7
14,N#Cc1[nH]cc(-c2ccc(Cl)cc2)c1N1CCOCC1,3.5
15,CC(=NNC(=O)c1ccccc1)c1cnccn1,1.9
16,CSc1ccc2nc(-c3ccc(N)cc3)cn2c1,2.9
17,CC(C)=CC1C(C(=O)OCc2cccc(I)c2)C1(C)C (centres undefined),6.61
18,O=C(NC1CCCCCC1)NS(=O)(=O)c1cnccc1NC1CCCCC1,4.62
19,CN(C)C(=O)Nc1cccc(OCc2ccc(Cl)cc2Cl)c1,4.1
20,CN(C)CCCCc1ccccc1,3.15
21,Clc1cc2c(c(Cl)c1Cl)Oc1c(Cl)ccc(Cl)c1O2,6.24
22,O=S(=O)(c1ccccc1)C(F)(F)F,2.68
23,COCCCNc1ncnc2c1ncn2C1OC(CO)C(O)C1O (centres undefined),-0.17

row,SMILES,logP
1,O[C@@H](c1cc(C(F)(F)F)nc2c(C(F)(F)F)cccc12)[C@H]1CCCCN1,4.49
2,O=C1c2cc([N+](=O)[O-])ccc2OCN1CCO[N+](=O)[O-],1.66
3,COc1ccc(CCNCC(O)COc2ccc(-c3nc(Br)c[nH]3)cc2)cc1OC (centres undefined),3.2
4,NC(=O)C(CCN1CCCCC1)c1ccccc1Cl (centres undefined),2.46
5,CCCOC(=O)C=COc1ccccc1,3.72
6,CCOCCCNc1ncnc2c1ncn2C1OC(CO)C(O)C1O (centres undefined),0.22
7,CC(C)CC(N)C(=O)NC(CC(C)C)C(=O)NC(CC(C)C)C(=O)NC(Cc1ccccc1)C(=O)O (centres undefined) (H-LLLF-OH; configuration not given here),0.24
8,CC1(C)CCC(C(F)(F)F)=[N+]1[O-],0.2
9,O=C1c2ccccc2-c2nnc(-c3ccccc3[N+](=O)[O-])cc21,2.64
10,C=CCON=C(C)c1cccc(Oc2nc(OC)cc(OC)n2)c1C(=O)OC,3.13
11,ON=Cc1nc(-c2cccs2)no1,2.47
12,CCCSCc1cc(=O)c(O)co1,1.32
13,Cc1cccc2c1OP(=O)(OCC1C=CC(n3cc(C)c(=O)[nH]c3=O)O1)OC2 (centres undefined),0.71
14,Nc1nnnn1-c1cc(Cl)ccc1Cl,1.61
15,Nc1ncnc2c1ncn2C1OC(CCl)C(O)C1O (centres undefined),-0.06
16,CC(=O)OC1CCCC2(C)CCC(C(C)(C)O)CC12 (centres undefined),3.42
17,CC(C)CC(NC(=O)C(NC(=O)C(N)C(C)O)C(C)C)C(=O)O (stereo not drawn) (H-Thr-Val-Leu-OH; configuration not given here),-1.97
18,Cc1cccc(C)c1CCn1ccnc1,2.73
19,CCC(C)NC(=O)NN (centres undefined),-0.84
20,CC(=O)NN=Cc1c(CO)ccc(C)c1O,1.71
